Structures are written as SMILES.

Test [1] deals with T1, BRPF1B (Homo sapiens, UniProt P55201).
T1 construct: purchased DiscoveRx (BROMOscan platform); host or cells: E. coli host derived from BL21 (T7 phage)
T1 sequence (P55201 628-732 limits assumed): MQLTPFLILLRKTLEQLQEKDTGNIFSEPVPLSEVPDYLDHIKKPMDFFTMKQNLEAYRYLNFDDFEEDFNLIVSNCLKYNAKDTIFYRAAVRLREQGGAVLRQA
Put plainly: BROMOscan bromodomain competitive binding assay (DiscoveRx), BRPF1B. To be noted: BROMOscan platform, n = 2 unless cell says n = 4. Here is the method:
(§1) Compounds were tested using the commercially available BROMOscan™ Platform (DiscoveRx): http://www.discoverx.com/technologies-platforms/competitive-binding-technology/bromoscan-technology-platform/bromoscan-assay-process.
(§2) Bromodomain assays. T7 phage strains displaying bromodomains were grown in parallel in 24-well blocks in an E. coli host derived from the BL21 strain. E. coli were grown to log-phase and infected with T7 phage from a frozen stock (multiplicity of infection=0.4) and incubated with shaking at 32° C. until lysis (90-150 minutes). The lysates were centrifuged (5,000×g) and filtered (0.2 μm) to remove cell debris. […] The liganded beads were blocked with excess biotin and washed with blocking buffer (SeaBlock (Pierce), 1% BSA, 0.05% Tween 20, 1 mM DTT) to remove unbound ligand and to reduce non-specific phage binding. […] Test compounds were prepared as 1000× stocks in 100% DMSO and subsequently diluted 1:10 in monoethylene glycol (MEG) to create stocks at 100× the screening concentration (resulting stock solution is 10% DMSO/90% MEG). The compounds were then diluted directly into the assays such that the final concentration of DMSO and MEG were 0.1% and 0.9%, respectively. All reactions were performed in polystyrene 96-well plates in a final volume of 0.135 ml. […] The bromodomain concentration in the eluates was measured by qPCR.
(§3) An 11-point 3-fold serial dilution of each test compound was prepared in 100% DMSO at 1000× final test concentration. This serial is then diluted to 100× in ethylene glycol and subsequently diluted to 1× in the assay (final DMSO concentration=0.1%, Ethylene glycol concentration=0.9%). Most Kds were determined using a compound top concentration=10,000 nM.
(§4) Binding constants (Kds) were calculated with a standard dose-response curve using the Hill equation: […]
(§5) The Hill Slope was set to −1. Curves were fitted using a non-linear least square fit with the Levenberg-Marquardt algorithm.
(§6) BROMOscan™ uses the same assay technology as KINOMEscan™. For a more detailed description of this assay technology, see Fabian et al.12

The target in test [2] is T2, BRD1 (Homo sapiens, UniProt O95696).
T2 construct: purchased DiscoveRx (BROMOscan platform); host or cells: E. coli host derived from BL21 (T7 phage)
T2 sequence (O95696 562-666 limits assumed): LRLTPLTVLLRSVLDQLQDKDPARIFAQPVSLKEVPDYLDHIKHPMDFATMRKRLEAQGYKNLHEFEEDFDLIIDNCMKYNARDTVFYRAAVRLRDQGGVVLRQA
Briefly: BROMOscan bromodomain competitive binding assay (DiscoveRx), BRD1. To be noted: BROMOscan platform, n = 2. As to the method:
as §1, §2, §3, §4, §5, §6

Test [3] concerns the target T3, BRPF3 (Homo sapiens, UniProt Q9ULD4).
T3 construct: purchased DiscoveRx (BROMOscan platform); host or cells: E. coli host derived from BL21 (T7 phage)
T3 sequence (Q9ULD4 589-693 limits assumed): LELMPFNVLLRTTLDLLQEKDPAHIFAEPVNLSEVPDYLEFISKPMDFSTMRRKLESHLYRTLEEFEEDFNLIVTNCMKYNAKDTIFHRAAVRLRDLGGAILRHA
Put plainly: BROMOscan bromodomain competitive binding assay (DiscoveRx), BRPF3. To be noted: BROMOscan platform, n = 2. Here is the method:
as §1, §2, §3, §4, §5, §6

With `Cc1cc(=O)n(C)c2ccc(NS(=O)(=O)c3ccc(C#N)cc3)cc12` [Compound 30, 4-cyano-N-(1,4-dimethyl-2-oxo-1,2-dihydroquinolin-6-yl)benzenesulfonamide], the Kd in test [1] came to 24 nM; in test [2] it was 150 nM. For the compound `Cn1c(=O)ccc2cc(NS(=O)(=O)c3ccccc3)ccc21` [Compound 1, N-(1-methyl-2-oxo-1,2-dihydroquinolin-6-yl)benzenesulfonamide], the Kd was 65 nM in test [1], 1400 nM in test [2] and 7600 nM in test [3].

As to `CN(c1ccc2c(ccc(=O)n2C)c1)S(=O)(=O)c1ccc(C#N)cc1` [Compound 34, 4-cyano-N-methyl-N-(1-methyl-2-oxo-1,2-dihydroquinolin-6-yl)benzenesulfonamide], the Kd amounted to 910 nM in test [1] and 6700 nM in test [2]. With `COc1cc2c(cc1NS(=O)(=O)c1ccccc1)cc(C)c(=O)n2C` [Compound 21, N-(7-methoxy-1,3-dimethyl-2-oxo-1,2-dihydroquinolin-6-yl)benzenesulfonamide], the Kd was 17 nM in test [1], 190 nM in test [2] and 590 nM in test [3]. Compound `Cn1c(=O)ccc2cc(NS(C)(=O)=O)ccc21` [Compound 51, N-(1-methyl-2-oxo-1,2-dihydroquinolin-6-yl)methanesulfonamide] showed a Kd in test [1] of 2200 nM. Still for that read-out and setting: in the case of `CCc1cc2cc(NS(=O)(=O)c3ccc(C#N)cc3OC)ccc2n(C)c1=O` [Compound 45, 4-cyano-N-(3-ethyl-1-methyl-2-oxo-1,2-dihydroquinolin-6-yl)-2-methoxybenzenesulfonamide] it was 66 nM. On to `Cn1c(=O)ccc2cc(NS(=O)(=O)C3CCCCC3)ccc21` [Compound 55, N-(1-methyl-2-oxo-1,2-dihydroquinolin-6-yl)cyclohexanesulfonamide], for which, in test [1], binding was put at a Kd of 380 nM. Consider `Cn1c(=O)ccc2cc(NS(=O)(=O)c3ccc(Cl)c(Cl)c3)ccc21` [Compound 9, 3,4-dichloro-N-(1-methyl-2-oxo-1,2-dihydroquinolin-6-yl)benzenesulfonamide], for which the Kd in test [1] is 44 nM; in test [2] it was 230 nM. `CC(C)S(=O)(=O)Nc1ccc2c(ccc(=O)n2C)c1` [Compound 53, N-(1-methyl-2-oxo-1,2-dihydroquinolin-6-yl)propane-2-sulfonamide]: the Kd in test [1] was 1100 nM.

As for `COc1ccccc1S(=O)(=O)Nc1ccc2c(c1)cc(C)c(=O)n2C` [Compound P-001, N-(1,3-dimethyl-2-oxo-1,2-dihydroquinolin-6-yl)-2-methoxybenzenesulfonamide, reference compound], the Kd in test [1] is 9 nM; in test [2], 130 nM. Turning to `Cn1c(=O)ccc2cc(NS(=O)(=O)c3ccccc3C#N)ccc21` [Compound 2, 2-cyano-N-(1-methyl-2-oxo-1,2-dihydroquinolin-6-yl)benzenesulfonamide], the Kd in test [1] turned out to be 430 nM; in test [2], 1700 nM. For `COc1cc2c(cc1NS(=O)(=O)c1ccccc1OC(F)(F)F)cc(C)c(=O)n2C` [Compound 67, N-(7-methoxy-1,3-dimethyl-2-oxo-1,2-dihydroquinolin-6-yl)-2-(trifluoromethoxy)benzenesulfonamide], the Kd in test [1] amounted to 48 nM. In the case of `COc1c(NS(=O)(=O)c2ccc(C#N)cc2)ccc2c1ccc(=O)n2C` [Compound 16, 4-cyano-N-(5-methoxy-1-methyl-2-oxo-1,2-dihydroquinolin-6-yl)benzenesulfonamide], the Kd in test [1] worked out at 46 nM; in test [2] it was 210 nM. As to `Cn1c(=O)ccc2cc(S(=O)(=O)Nc3ccc(C#N)cc3)ccc21` [Compound 38, N-(4-cyanophenyl)-1-methyl-2-oxo-1,2-dihydroquinoline-6-sulfonamide], the Kd in test [1] turned out to be 100 nM; in test [2], 150 nM.

As to `COc1cc2c(cc1NS(=O)(=O)c1ccc(C#N)cc1)c(C)c(C)c(=O)n2C` [Compound 50, 4-cyano-N-(7-methoxy-1,3,4-trimethyl-2-oxo-1,2-dihydroquinolin-6-yl)benzenesulfonamide], in test [1], binding was put at a Kd of 140 nM. Consider `Cn1c(=O)ccc2cc(NS(=O)(=O)c3cccc(C#N)c3)ccc21` [Compound 3, 3-cyano-N-(1-methyl-2-oxo-1,2-dihydroquinolin-6-yl)benzenesulfonamide], for which the Kd is 56 nM in test [1] and 270 nM in test [2]. Turning to `CCS(=O)(=O)Nc1ccc2c(ccc(=O)n2C)c1` [Compound 52, N-(1-methyl-2-oxo-1,2-dihydroquinolin-6-yl)ethanesulfonamide], the Kd in test [1] is 1200 nM. That is a single-digit micromolar value. On the same count and under the same terms, the result for `Cn1c(=O)ccc2cc(NS(=O)(=O)C3CC3)ccc21` [Compound 54, N-(1-methyl-2-oxo-1,2-dihydroquinolin-6-yl)cyclopropanesulfonamide] reads 520 nM. On the same count and under the same terms, the result for `Cc1cc2cc(NS(=O)(=O)C3CCCCC3)ccc2n(C)c1=O` [Compound 56, N-(1,3-dimethyl-2-oxo-1,2-dihydroquinolin-6-yl)cyclohexanesulfonamide] reads 31 nM; that for `CC(C)Oc1cc2c(ccc(=O)n2C)cc1NS(=O)(=O)c1ccc(C#N)cc1` [Compound 14, 4-cyano-N-(7-isopropoxy-1-methyl-2-oxo-1,2-dihydroquinolin-6-yl)benzenesulfonamide], 39 nM. Same read-out and setting: in the case of `COc1cc(C(N)=O)ccc1S(=O)(=O)Nc1ccc2c(c1)cc(C)c(=O)n2C` [Compound 62, 4-(N-(1,3-dimethyl-2-oxo-1,2-dihydroquinolin-6-yl)sulfamoyl)-3-methoxybenzamide] it was 5 nM. `COc1cc2c(cc1NS(=O)(=O)c1ccc(N)cc1)cc(C)c(=O)n2C` [Compound 25, 4-amino-N-(7-methoxy-1,3-dimethyl-2-oxo-1,2-dihydroquinolin-6-yl)benzenesulfonamide]: the Kd in test [1] turned out to be 420 nM. Still for that read-out and setting: in the case of `COc1cc(C#N)ccc1S(=O)(=O)Nc1cc(F)c2c(c1)cc(C)c(=O)n2C` [Compound 49, 4-cyano-N-(8-fluoro-1,3-dimethyl-2-oxo-1,2-dihydroquinolin-6-yl)-2-methoxybenzenesulfonamide] it was 10 nM. As for `COc1cc2c(ccc(=O)n2C)cc1NS(=O)(=O)c1ccccc1` [Compound 10, N-(7-methoxy-1-methyl-2-oxo-1,2-dihydroquinolin-6-yl)benzenesulfonamide], the results for the Kd in test [1], in test [2] and in test [3] were 29 nM, 380 nM and 2200 nM, respectively. Consider `COc1cc2c(cc1NS(=O)(=O)c1ccc(C#N)cc1)cc(C)c(=O)n2C` [Compound 22, 4-cyano-N-(7-methoxy-1,3-dimethyl-2-oxo-1,2-dihydroquinolin-6-yl)benzenesulfonamide], for which the Kd in test [1] was found to be 15 nM; in test [2], 100 nM; in test [3] it was 280 nM. For the compound `COc1cc(C#N)ccc1S(=O)(=O)N(C)c1ccc2c(c1)cc(C)c(=O)n2C` [Compound 59, 4-cyano-N-(1,3-dimethyl-2-oxo-1,2-dihydroquinolin-6-yl)-2-methoxy-N-methylbenzenesulfonamide], the affinity in test [1], expressed as Kd, was 52 nM. Take `CCn1c(=O)ccc2cc(NS(=O)(=O)c3ccc(C#N)cc3)ccc21` [Compound 35, 4-cyano-N-(1-ethyl-2-oxo-1,2-dihydroquinolin-6-yl)benzenesulfonamide]: the values for the Kd in test [1] and in test [2] were 47 nM and 390 nM, respectively. The matching figures for `Cn1c(=O)ccc2c(Br)c(NS(=O)(=O)c3ccc(C#N)cc3)ccc21` [Compound 18, N-(5-bromo-1-methyl-2-oxo-1,2-dihydroquinolin-6-yl)-4-cyanobenzenesulfonamide]: 210 nM and 840 nM. Compound `CCOc1cc2c(ccc(=O)n2C)cc1NS(=O)(=O)c1ccc(C#N)cc1` [Compound 13, 4-cyano-N-(7-ethoxy-1-methyl-2-oxo-1,2-dihydroquinolin-6-yl)benzenesulfonamide] gave a Kd in test [1] of 55 nM.

One may read the Kd as the concentration at which binding is half-saturated. Lower therefore signals a tighter complex.

These data come from patent publication US20170291875A1, “QUINOLONES AS INHIBITORS OF CLASS IV BROMODOMAIN PROTEINS” (UCL BUSINESS PLC, priority 2014, published 2017).
